According to patent publication US11142501B2, “Prodrugs of monomethyl fumarate” (IXCHEL PHARMA, LLC, priority 2019, dated 2021):
Where a name gives a salt, the structure may show the parent alone.

Legend:
[1] = Solubility; format: physicochemical; details: water; compared with monomethyl fumarate
[2] = Stability of prodrugs on storage at RT and RF; format: physicochemical; details: in % (unit assumed); for Stability, value at 0 DAY: 0 day (14 Nov. 2018), dissolved in acetonitrile for analysis; for Stability, value at 7 DAY, RT / Stability, value at 15 DAY, RT: storage at room temp/25° C.; for Stability, value at 7 DAY, RT / Stability, value at 7 DAY, RF / Stability, value at 15 DAY, RT / Stability, value at 15 DAY, RF: acetonitrile for analysis; for Stability, value at 7 DAY, RF / Stability, value at 15 DAY, RF: storage under refrigeration/4° C.
Experimental: Compounds dissolved in ACN for analysis RT: Room temp/25° C. RF: Refrigeration/4° C.

[3] = Rat plasma conversion (ex-vivo); format: in vitro ADME
[4] = Oral (PO) pharmacokinetics study in SD rat; format: in vivo
Experimental: Exemplary compounds of the present invention were subjected to oral (PO) Pharmacokinetics (PK) study in SD rat and data was compared with parent MMF. 6 overnight fasted male SD rats were dosed with MMF dose of 10 mpk and test compounds at the desired dose level of 10 mpk equivalent of MMF by PO route. Dosing vehicle used was MQ water. Blood was collected at different time points by retro orbital route. Plasma samples were stored at −80° C. for LC-MS analysis. Animals were sacrificed post final blood collection. Dosing and collection was done as per the in vivo protocol given below. PK analysis was done using LC-MS (ABI3200). Data analysis was performed using PRISM software to determine PK parameters such Cmax (the maximum (or peak) serum concentration that a drug achieves in a specified compartment or test area of the body after the drug has been administrated and before the administration of a second dose), Tmax (time at which the Cmax is observed) AUC (definite integral in a plot of drug concentration in blood plasma vs. time), MRT (Mean Residence Time) and t1/2 (The time required for one half of the total amount of a particular substance in a biological system to be degraded by biological processes when the rate of removal is nearly exponential)

Row | SMILES | Solubility [1] | Stability, value at 0 DAY [2] | Stability, value at 7 DAY, RT [2] | Stability, value at 7 DAY, RF [2] | Stability, value at 15 DAY, RT [2] | Stability, value at 15 DAY, RF [2] | Rat plasma conversion [3] | pharmacokinetics in delivery of monomethyl fumarate (MMF) in comparison with direct administration of MMF ([4]; FIG. 1 legend, in words) | AUC in rat plasma as compared to the parent drug MMF ([4]; SD rat, PO, in words) | T1/2 in rat plasma as compared to the parent drug MMF ([4]; SD rat, PO, in words) | conversion in vivo ([4]; in vivo, rat)
1 | COC(=O)/C=C/C(=O)O [MMF, monomethyl fumarate] | highly soluble | – | – | – | – | – | – | – | – | – | –
2 | COC(=O)/C=C/C(=O)OC[n+]1cccc(C(N)=O)c1.[I-] [SPR11574, (E)-3-carbamoyl-1-(((4-methoxy-4-oxobut-2-enoyl)oxy)methyl) pyridin-1-ium iodide] | – | 97.81 | 97.61 | 97.61 | 97.21 | 97.95 | convert instantly | – | – | – | –
3 | CNC(=O)c1ccc[n+](COC(=O)/C=C/C(=O)OC)c1.[I-] [SPR11575, (E)-1-(((4-methoxy-4-oxobut-2-enoyl)oxy)methyl)-3-(methylcarbamoyl) pyridin-1-ium iodide] | – | 97.7 | 97.61 | 97.82 | 97.06 | 97.66 | convert instantly | enhanced | better enhanced | better enhanced | –
4 | COC(=O)/C=C/C(=O)OC[n+]1cccc(C(=O)N(C)C)c1.[I-] [SPR11576, (E)-3-(dimethylcarbamoyl)-1-(((4-methoxy-4-oxobut-2-enoyl)oxy)methyl)pyridin-1-ium iodide] | – | 97.68 | 96.97 | 97.7 | 96.28 | 97.82 | convert instantly | – | – | – | –
5 | COC(=O)/C=C/C(=O)OCOC(=O)c1cccnc1 [SPR11577, methyl((nicotinoyloxy) methyl)fumarate] | – | 99.35 | 99.79 | 99.89 | 100 | 100 | convert instantly | – | – | – | –
6 | COC(=O)/C=C/C(=O)OCOC(=O)c1ccc[n+](C)c1.[I-] [SPR11578, (E)-3-((((4-methoxy-4-oxobut-2-enoyl)oxy)methoxy)carbonyl)-1-methylpyridin-1-ium iodide] | – | – | – | – | – | – | doesn't convert completely | – | – | – | doesn't convert completely
